Starred links: 1 amine or outer side, 2 acyl side, 3 side chain; linkers in the order of their positions; H or OH if unused. Residues, ends and D or L forms follow the SMILES beside them. Groups on a side chain read outwards from the residue. *: point of attachment. TTDA(Palmitoyl) = CCCCCCCCCCCCCCCC(=O)NCCCOCCOCCOCCCN*; γGlu = O=C(O)[C@H](CCC(=O)[*:2])N[*:1]; Palmitoyl = CCCCCCCCCCCCCCCC(=O)*; Suc = O=C(CCC(=O)[*:2])[*:1]
How the values were obtained:
c-Fos = assay: Fos immunohistochemistry in mouse brain; type: in vivo; conditions: overnight fasted mice, 5 mg/kg SC, 90 min after injection, n = 4, vs saline
Description: Ninety minutes after injection, the mice were deeply anesthetized with sodium pentobarbital (50 mg/kg, intraperitoneally) and perfused transcardially. The brains were withdrawn, and c-Fos immunoreactivity was determined as described in [19, 20].
For the immunohistochemical study, the c-Fos rabbit monoclonal antibody (Cell Signaling Technology, #2250S) detecting total level of endogenous c-Fos protein was used in final dilution (1:2000) for 48 h (4°C).

[1] = Cumulative food intake of DIO mice during 2-week SC treatment; type: in vivo, C57BL/6 mice; conditions: two weeks of SC treatment, 5 mg/kg twice a day, in words
Text: Inbred C57BL/6 male mice that were 3 weeks old were obtained from Charles River Laboratories (Sulzfeld, Germany). […] From 8 weeks of age, the mice were fed in house made high-fat (HF) diet to induce obesity. […] After twelve weeks of HF-diet feeding, two weeks of SC administration of lipidized PrRP analogs was initiated while the mice were kept on the HF diet. The following experimental groups were established: […] Food intake and BW were monitored daily during the dosing period.

Structure (SMILES): CCCCCCCCCCCCCCCC(=O)N[C@@H](CCC(=O)NCCCC[C@H](NC(=O)[C@@H](NC(=O)[C@H](CCC(=O)O)NC(=O)[C@H](CCSC)NC(=O)[C@H](CO)NC(=O)[C@H](Cc1c[nH]cn1)NC(=O)[C@H](CCCNC(=N)N)NC(=O)[C@H](Cc1c[nH]cn1)NC(=O)[C@@H](NC(=O)[C@H](CCCNC(=N)N)NC(=O)[C@@H](N)CO)[C@@H](C)O)[C@@H](C)CC)C(=O)N[C@H](C(=O)N1CCC[C@H]1C(=O)N[C@@H](CC(=O)O)C(=O)N[C@H](C(=O)N[C@@H](CC(N)=O)C(=O)N1CCC[C@H]1C(=O)N[C@@H](C)C(=O)N[C@@H](Cc1c[nH]c2ccccc12)C(=O)N[C@@H](Cc1ccc(O)cc1)C(=O)N[C@@H](C)C(=O)N[C@@H](CO)C(=O)N[C@@H](CCCNC(=N)N)C(=O)NCC(=O)N[C@H](C(=O)N[C@@H](CCCNC(=N)N)C(=O)N1CCC[C@H]1C(=O)N[C@H](C(=O)NCC(=O)N[C@@H](CCCNC(=N)N)C(=O)N[C@@H](Cc1ccccc1)C(N)=O)C(C)C)[C@@H](C)CC)[C@@H](C)CC)[C@@H](C)O)C(=O)O [analog 1] (H-SRTHRHSMEIK([γGlu-Palmitoyl])TPDINPAWYASRGIRPVGRF-NH2; N-terminus assumed)
- c-Fos immunoreactivity in Arc, PVN and DMN (c-Fos): significant increase
- Food intake compared to the saline-treated control group [1]: did not reach statistical significance

Structure (SMILES): CCCCCCCCCCCCCCCC(=O)NCCCOCCOCCOCCCNC(=O)CCC(=O)NCCCC[C@H](NC(=O)[C@@H](NC(=O)[C@H](CCC(=O)O)NC(=O)[C@H](CCSC)NC(=O)[C@H](CO)NC(=O)[C@H](Cc1c[nH]cn1)NC(=O)[C@H](CCCNC(=N)N)NC(=O)[C@H](Cc1c[nH]cn1)NC(=O)[C@@H](NC(=O)[C@H](CCCNC(=N)N)NC(=O)[C@H](CO)NC(=O)CCC(=O)NCCCOCCOCCOCCCNC(=O)CCCCCCCCCCCCCCC)[C@@H](C)O)[C@@H](C)CC)C(=O)N[C@H](C(=O)N1CCC[C@H]1C(=O)N[C@@H](CC(=O)O)C(=O)N[C@H](C(=O)N[C@@H](CC(N)=O)C(=O)N1CCC[C@H]1C(=O)N[C@@H](C)C(=O)N[C@@H](Cc1c[nH]c2ccccc12)C(=O)N[C@@H](Cc1ccc(O)cc1)C(=O)N[C@@H](C)C(=O)N[C@@H](CO)C(=O)N[C@@H](CCCNC(=N)N)C(=O)NCC(=O)N[C@H](C(=O)N[C@@H](CCCNC(=N)N)C(=O)N1CCC[C@H]1C(=O)N[C@H](C(=O)NCC(=O)N[C@@H](CCCNC(=N)N)C(=O)N[C@@H](Cc1ccccc1)C(N)=O)C(C)C)[C@@H](C)CC)[C@@H](C)CC)[C@@H](C)O [analog 3] ({TTDA(Palmitoyl)-Suc}-SRTHRHSMEIK([Suc-TTDA(Palmitoyl)])TPDINPAWYASRGIRPVGRF-NH2)
- Food intake compared to the saline-treated control group [1]: did not have any significant effects

Structure (SMILES): CCCCCCCCCCCCCCCC(=O)NCCCOCCOCCOCCCNC(=O)CCC(=O)NCCCC[C@H](NC(=O)[C@@H](NC(=O)[C@H](CCC(=O)O)NC(=O)[C@H](CCSC)NC(=O)[C@H](CO)NC(=O)[C@H](Cc1c[nH]cn1)NC(=O)[C@H](CCCNC(=N)N)NC(=O)[C@H](Cc1c[nH]cn1)NC(=O)[C@@H](NC(=O)[C@H](CCCNC(=N)N)NC(=O)[C@@H](N)CO)[C@@H](C)O)[C@@H](C)CC)C(=O)N[C@H](C(=O)N1CCC[C@H]1C(=O)N[C@@H](CC(=O)O)C(=O)N[C@H](C(=O)N[C@@H](CC(N)=O)C(=O)N1CCC[C@H]1C(=O)N[C@@H](C)C(=O)N[C@@H](Cc1c[nH]c2ccccc12)C(=O)N[C@@H](Cc1ccc(O)cc1)C(=O)N[C@@H](C)C(=O)N[C@@H](CO)C(=O)N[C@@H](CCCNC(=N)N)C(=O)NCC(=O)N[C@H](C(=O)N[C@@H](CCCNC(=N)N)C(=O)N1CCC[C@H]1C(=O)N[C@H](C(=O)NCC(=O)N[C@@H](CCCNC(=N)N)C(=O)N[C@@H](Cc1ccccc1)C(N)=O)C(C)C)[C@@H](C)CC)[C@@H](C)CC)[C@@H](C)O [analog 2] (H-SRTHRHSMEIK([Suc-TTDA(Palmitoyl)])TPDINPAWYASRGIRPVGRF-NH2; N-terminus assumed)
- Food intake compared to the saline-treated control group [1]: significantly reduced

Reference: publication PMC5562305, “Impact of novel palmitoylated prolactin-releasing peptide analogs on metabolic changes in mice with diet-induced obesity” (PLoS ONE, 2017)
